# Test results taken from patent US11098044B2, “Imidazopyridinyl compounds and use thereof for treatment of neurodegenerative disorders” (1ST Biotherapeutics, Inc., priority 2019, dated 2021).
# Assays:
# Format in all cases: biochemical
# [1] = target: c-Abl (His-tagged recombinant human ABL1) (Homo sapiens (Human), UniProt P00519); experiment: c-abl Kinase Assay (ADP-Glo); conditions: ATP (25 μM), Abltide substrate
# Method: ADP-Glo assay kit was purchased from Promega. Magnesium chloride (MgCl2), bovine serum albumin (BSA), ethylene glycol-bis(p-aminoethyl ether)-N,N,N′,N′-tetraacetic acid (EGTA), triton X-100, 1,4-dithiothreitol (DTT) and dimethyl sulfoxide (DMSO) were purchased from Sigma-Aldrich. HEPES buffer was purchased from Gibco. ABL1 kinase and Abltide were purchased from Signalchem.
# c-Abl kinase activity was measured by Promega's ADP-Glo™ Assay. In this assay, His-tagged recombinant human ABL1 (0.25 ng/μl) is incubated with 5 μL of compounds (0.5% DMSO), 5 μL of Abltide (0.01 μg/μl) and 5 μL of ATP (25 μM) in buffer (50 mM HEPES, 7.5; 10 mM MgCl2; 1 mM EGTA; 0.05% BSA; 0.01% Triton X-100; 2 mM DTT). The assay was started by incubating the reaction mixture in a 96-well plate at 30° C. for 30-min. After the incubation, 25 μL ADP-Glo reagent was added and the reaction was incubated at room temperature for 40-min to stop the reaction and degrade residual ATP. The ADP product was then converted to ATP by adding 50 μL per well of detection reagent. Luminescence was detected after 30-min room temperature incubation with the Molecular device I3X plate reader. The IC50 values were calculated from a series of percent inhibition values determined at a range of inhibitor concentration using software routines as implemented in the GraphPad Prism 7 software and Sigma Plot 13.0.
# LRRK2 (WT) = LRRK2 (WT) (Homo sapiens (Human), UniProt Q5S007); experiment: LRRK2 Kinase Assay (Adapta); conditions: 70 μM ATP, LRRKtide substrate
# LRRK2 (WT), sequence (Q5S007 whole entry): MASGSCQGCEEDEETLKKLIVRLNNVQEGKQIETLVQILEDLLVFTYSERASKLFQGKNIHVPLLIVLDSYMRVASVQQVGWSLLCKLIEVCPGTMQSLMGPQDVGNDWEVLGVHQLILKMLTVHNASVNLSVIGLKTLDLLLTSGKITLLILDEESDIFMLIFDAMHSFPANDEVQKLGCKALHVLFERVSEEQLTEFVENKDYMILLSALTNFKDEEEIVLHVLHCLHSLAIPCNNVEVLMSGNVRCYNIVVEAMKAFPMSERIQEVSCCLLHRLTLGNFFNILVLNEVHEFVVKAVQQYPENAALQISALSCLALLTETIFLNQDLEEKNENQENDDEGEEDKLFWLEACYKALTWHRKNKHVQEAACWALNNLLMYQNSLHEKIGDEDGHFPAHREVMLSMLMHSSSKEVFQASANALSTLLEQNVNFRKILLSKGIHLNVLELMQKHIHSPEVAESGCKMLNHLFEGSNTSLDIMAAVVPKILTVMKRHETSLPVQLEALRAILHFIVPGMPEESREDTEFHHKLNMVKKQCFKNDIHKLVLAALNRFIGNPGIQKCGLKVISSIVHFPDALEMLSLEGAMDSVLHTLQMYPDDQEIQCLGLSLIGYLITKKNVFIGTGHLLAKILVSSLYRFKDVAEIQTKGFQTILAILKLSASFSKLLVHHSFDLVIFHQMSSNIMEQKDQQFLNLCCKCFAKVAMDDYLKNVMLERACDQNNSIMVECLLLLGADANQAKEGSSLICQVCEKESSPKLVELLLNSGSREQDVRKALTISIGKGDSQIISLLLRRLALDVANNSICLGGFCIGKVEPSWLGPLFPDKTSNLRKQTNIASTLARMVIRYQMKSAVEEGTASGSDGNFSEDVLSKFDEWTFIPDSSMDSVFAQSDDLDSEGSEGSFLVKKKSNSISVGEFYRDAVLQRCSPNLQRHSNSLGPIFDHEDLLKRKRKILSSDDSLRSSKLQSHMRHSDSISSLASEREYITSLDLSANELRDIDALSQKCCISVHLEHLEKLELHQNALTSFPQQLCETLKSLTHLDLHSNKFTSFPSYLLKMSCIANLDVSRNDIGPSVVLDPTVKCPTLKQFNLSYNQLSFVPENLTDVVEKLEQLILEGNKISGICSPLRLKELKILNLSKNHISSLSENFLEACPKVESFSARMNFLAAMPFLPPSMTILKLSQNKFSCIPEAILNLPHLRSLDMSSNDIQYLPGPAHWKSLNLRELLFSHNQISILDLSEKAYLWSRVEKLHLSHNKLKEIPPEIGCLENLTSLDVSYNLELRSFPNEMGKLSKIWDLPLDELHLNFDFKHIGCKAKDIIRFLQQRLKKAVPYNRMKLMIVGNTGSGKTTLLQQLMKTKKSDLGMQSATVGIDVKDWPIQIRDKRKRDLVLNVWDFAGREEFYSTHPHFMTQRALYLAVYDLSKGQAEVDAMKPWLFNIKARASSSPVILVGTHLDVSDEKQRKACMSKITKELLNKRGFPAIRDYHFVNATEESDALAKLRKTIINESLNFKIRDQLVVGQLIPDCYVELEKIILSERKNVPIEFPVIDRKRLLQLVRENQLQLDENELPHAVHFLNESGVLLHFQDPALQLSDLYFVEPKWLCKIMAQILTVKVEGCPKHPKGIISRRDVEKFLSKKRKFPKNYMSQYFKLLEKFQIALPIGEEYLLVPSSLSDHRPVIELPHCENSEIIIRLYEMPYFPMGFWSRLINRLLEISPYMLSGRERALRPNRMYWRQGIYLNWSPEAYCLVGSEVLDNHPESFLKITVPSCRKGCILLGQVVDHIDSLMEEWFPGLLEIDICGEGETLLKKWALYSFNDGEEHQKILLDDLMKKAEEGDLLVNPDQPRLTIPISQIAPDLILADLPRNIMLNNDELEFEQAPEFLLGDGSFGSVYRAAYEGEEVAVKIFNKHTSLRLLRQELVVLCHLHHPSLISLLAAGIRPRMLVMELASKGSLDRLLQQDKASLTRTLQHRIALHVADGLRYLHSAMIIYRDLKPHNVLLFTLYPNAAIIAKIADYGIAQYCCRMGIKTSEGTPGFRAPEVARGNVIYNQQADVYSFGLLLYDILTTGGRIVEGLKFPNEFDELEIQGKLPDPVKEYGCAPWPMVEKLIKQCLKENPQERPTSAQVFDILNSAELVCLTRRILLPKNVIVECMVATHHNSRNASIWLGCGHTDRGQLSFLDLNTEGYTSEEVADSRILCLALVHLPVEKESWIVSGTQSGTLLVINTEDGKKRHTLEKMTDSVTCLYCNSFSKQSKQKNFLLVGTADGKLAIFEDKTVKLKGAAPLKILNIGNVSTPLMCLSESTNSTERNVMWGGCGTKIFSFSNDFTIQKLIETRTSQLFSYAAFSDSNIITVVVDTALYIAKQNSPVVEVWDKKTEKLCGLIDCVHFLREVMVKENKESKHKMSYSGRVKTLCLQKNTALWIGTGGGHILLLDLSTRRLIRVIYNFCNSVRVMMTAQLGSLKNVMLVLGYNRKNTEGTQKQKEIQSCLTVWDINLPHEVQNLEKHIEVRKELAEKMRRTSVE
# Method: (§1) The LRRK2 and LRRK2 G2019S kinase assays were performed using the Adapta™ technology in ThermoFisher Scientific. This experiment was carried out according to the supplier's protocol. Briefly, assay conditions were as follows. The mixture of substrate (LRRKtide) and each kinase was prepared in 50 mM Tris pH 8.5, 0.01% BRIJ-35, 10 mM MgCl2, 1 mM EGTA, 0.02% NaN3. Assays were performed in the presence of 70 μM ATP and 100 μM ATP (KmATP) in LRRK2 and LRRK2 G2019S, respectively. The reaction was progressed at room temperature for 1 hour. Upon completion of kinase reaction, 5 μL of Detection Mix was added and after 60 min incubation time, the emission ratio of 665/615 nm was calculated.
# LRRK2 G2019S = LRRK2 G2019S (Homo sapiens (Human), UniProt Q5S007, G2019S); experiment: LRRK2 G2019S Kinase Assay (Adapta); conditions: 100 μM ATP, LRRKtide substrate; read-out: LRRK2_G2019S IC50
# LRRK2 G2019S, sequence (Q5S007 whole entry G2019S): as the sequence (Q5S007 whole entry) above, with G2019S counted along it
# Method: as §1
# c-Abl (His-tagged recombinant human ABL1), sequence (P00519 whole entry): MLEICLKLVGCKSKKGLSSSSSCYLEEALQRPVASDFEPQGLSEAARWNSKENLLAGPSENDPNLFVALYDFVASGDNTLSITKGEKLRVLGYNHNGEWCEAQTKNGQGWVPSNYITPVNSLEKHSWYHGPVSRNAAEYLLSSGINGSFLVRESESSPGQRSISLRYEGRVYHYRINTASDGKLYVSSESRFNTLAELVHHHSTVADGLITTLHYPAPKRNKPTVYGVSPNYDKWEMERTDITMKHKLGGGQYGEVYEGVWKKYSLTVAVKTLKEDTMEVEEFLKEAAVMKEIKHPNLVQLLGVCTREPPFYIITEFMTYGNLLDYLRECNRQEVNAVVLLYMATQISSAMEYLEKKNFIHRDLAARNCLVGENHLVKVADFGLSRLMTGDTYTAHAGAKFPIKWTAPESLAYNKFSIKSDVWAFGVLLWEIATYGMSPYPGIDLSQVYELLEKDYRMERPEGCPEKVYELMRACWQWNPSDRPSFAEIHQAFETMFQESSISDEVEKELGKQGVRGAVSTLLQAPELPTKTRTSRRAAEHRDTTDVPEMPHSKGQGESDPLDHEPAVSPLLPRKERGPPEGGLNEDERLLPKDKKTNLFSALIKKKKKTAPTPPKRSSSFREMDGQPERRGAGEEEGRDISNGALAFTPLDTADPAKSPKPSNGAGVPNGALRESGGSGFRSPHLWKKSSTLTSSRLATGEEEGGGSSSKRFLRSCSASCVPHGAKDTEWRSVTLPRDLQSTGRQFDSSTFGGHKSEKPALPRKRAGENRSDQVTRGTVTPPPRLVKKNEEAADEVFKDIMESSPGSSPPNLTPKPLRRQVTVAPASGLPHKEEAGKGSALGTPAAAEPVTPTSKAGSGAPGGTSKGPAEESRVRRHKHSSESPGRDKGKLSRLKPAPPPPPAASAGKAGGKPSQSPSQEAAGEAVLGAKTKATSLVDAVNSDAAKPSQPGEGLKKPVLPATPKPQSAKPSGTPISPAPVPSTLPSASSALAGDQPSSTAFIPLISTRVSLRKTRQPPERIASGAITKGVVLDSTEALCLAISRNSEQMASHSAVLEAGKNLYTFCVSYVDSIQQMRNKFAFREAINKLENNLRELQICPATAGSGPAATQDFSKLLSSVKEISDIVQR
SMILES,IC50 [1] [nM],IC50 (LRRK2 (WT)) [nM],IC50 (LRRK2 G2019S) [nM]
"Cc1cccc(F)c1-c1ccc2nc(NC(=O)[C@@H]3C[C@@H]3F)c(Cl)n2c1 [Example 4, (1S,2S)—N-(3-chloro-6-(2-fluoro-6-methylphenyl)imidazo[1,2-a]pyridin-2-yl)-2-fluorocyclopropane-1-carboxamide]",10 to 100,> 1000,101 to 1000
"Cc1ccncc1-c1ccc2nc(NC(=O)[C@@H]3C[C@@H]3F)c(C)n2c1 [Example 5, (1S,2S)-2-fluoro-N-(3-methyl-6-(4-methylpyridin-3-yl)imidazo[1,2-a]pyridin-2-yl)cyclopropane-1-carboxamide]",101 to 1000,> 1000,> 1000
"Cc1ccncc1-c1ccc2nc(NC(=O)[C@@H]3C[C@@H]3F)cn2c1 [Example 6, (1S,2S)-2-fluoro-N-(6-(4-methylpyridin-3-yl)imidazo[1,2-a]pyridin-2-yl)cyclopropane-1-carboxamide]",10 to 100,101 to 1000,101 to 1000
"Cc1ccncc1-c1ccc2nc(NC(=O)[C@@H]3C[C@@H]3F)c(Cl)n2c1 [Example 7, (1S,2S)—N-(3-chloro-6-(4-methylpyridin-3-yl)imidazo[1,2-a]pyridin-2-yl)-2-fluorocyclopropane-1-carboxamide]",101 to 1000,> 1000,> 1000
"Cc1c(F)cccc1-c1ccc2nc(NC(=O)[C@@H]3C[C@@H]3F)c(C)n2c1 [Example 8, (1S,2S)-2-fluoro-N-(6-(3-fluoro-2-methylphenyl)-3-methylimidazo[1,2-a]pyridin-2-yl)cyclopropane-1-carboxamide]",10 to 100,101 to 1000,101 to 1000
"Cc1cccc(F)c1-c1ccc2nc(NC(=O)[C@@H]3C[C@@H]3F)c(C)n2c1 [Example 9, (1S,2S)-2-fluoro-N-(6-(2-fluoro-6-methylphenyl)-3-methylimidazo[1,2-a]pyridin-2-yl)cyclopropane-1-carboxamide]",10 to 100,101 to 1000,101 to 1000
"Cc1ccc(O)cc1-c1ccc2nc(NC(=O)[C@@H]3C[C@@H]3F)cn2c1 [Example 12, (1S,2S)-2-fluoro-N-(6-(5-hydroxy-2-methylphenyl)imidazo[1,2-a]pyridin-2-yl)cyclopropane-1-carboxamide]",< 10,10 to 100,10 to 100
"COC(=O)c1ccc(C)c(-c2ccc3nc(NC(=O)[C@@H]4C[C@@H]4F)cn3c2)c1 [Example 13, methyl 3-(2-((1S,2S)-2-fluorocyclopropane-1-carboxamido)imidazo[1,2-a]pyridin-6-yl)-4-methylbenzoate]",< 10,> 1000,> 1000
"Cc1c(F)cncc1-c1ccc2nc(NC(=O)[C@@H]3C[C@@H]3F)cn2c1 [Example 14, (1S,2S)-2-fluoro-N-(6-(5-fluoro-4-methylpyridin-3-yl)imidazo[1,2-a]pyridin-2-yl)cyclopropane-1-carboxamide]",< 10,101 to 1000,101 to 1000
"Cc1ccc2[nH]ccc2c1-c1ccc2nc(NC(=O)[C@@H]3C[C@@H]3F)cn2c1 [Example 15, (1S,2S)-2-fluoro-N-(6-(5-methyl-1H-indol-4-yl)imidazo[1,2-a]pyridin-2-yl)cyclopropane-1-carboxamide]",< 10,< 10,< 10
"Cc1ccc(C#N)cc1-c1ccc2nc(NC(=O)[C@@H]3C[C@@H]3F)cn2c1 [Example 17, (1S,2S)—N-(6-(5-cyano-2-methylphenyl)imidazo[1,2-a]pyridin-2-yl)-2-fluorocyclopropane-1-carboxamide]",< 10,101 to 1000,101 to 1000
"O=C(Nc1cn2cc(-c3cc[nH]n3)ccc2n1)[C@@H]1C[C@@H]1F [Example 18, (1S,2S)—N-(6-(1H-pyrazol-3-yl)imidazo[1,2-a]pyridin-2-yl)-2-fluorocyclopropane-1-carboxamide]",101 to 1000,101 to 1000,101 to 1000
"Cc1c[nH]nc1-c1ccc2nc(NC(=O)[C@@H]3C[C@@H]3F)cn2c1 [Example 19, (1S,2S)-2-fluoro-N-(6-(4-methyl-1H-pyrazol-3-yl)imidazo[1,2-a]pyridin-2-yl)cyclopropane-1-carboxamide]",10 to 100,101 to 1000,101 to 1000
"Cc1c(O)cccc1-c1ccc2nc(NC(=O)[C@@H]3C[C@@H]3F)cn2c1 [Example 20, (1S,2S)-2-fluoro-N-(6-(3-hydroxy-2-methylphenyl)imidazo[1,2-a]pyridin-2-yl)cyclopropane-1-carboxamide]",< 10,< 10,10 to 100
"Cc1ccc(N)cc1-c1ccc2nc(NC(=O)[C@@H]3C[C@@H]3F)cn2c1 [Example 23, (1S,2S)—N-(6-(5-amino-2-methylphenyl)imidazo[1,2-a]pyridin-2-yl)-2-fluorocyclopropane-1-carboxamide]",< 10,101 to 1000,10 to 100
"CC(=O)Nc1ccc(C)c(-c2ccc3nc(NC(=O)[C@@H]4C[C@@H]4F)cn3c2)c1 [Example 25, (1S,2S)—N-(6-(5-acetamido-2-methylphenyl)imidazo[1,2-a]pyridin-2-yl)-2-fluorocyclopropane-1-carboxamide]",10 to 100,> 1000,101 to 1000
"Cc1ccc(Cl)cc1-c1ccc2nc(NC(=O)[C@@H]3C[C@@H]3F)cn2c1 [Example 26, (1S,2S)—N-(6-(5-chloro-2-methylphenyl)imidazo[1,2-a]pyridin-2-yl)-2-fluorocyclopropane-1-carboxamide]",< 10,101 to 1000,101 to 1000

# Continued, values first:
IC50 [1] [nM],IC50 (LRRK2 (WT)) [nM],IC50 (LRRK2 G2019S) [nM],SMILES
101 to 1000,> 1000,> 1000,"Cc1c(F)cncc1-c1ccc2nc(NC(=O)[C@@H]3C[C@@H]3F)c(C)n2c1 [Example 10, (1S,2S)-2-fluoro-N-(6-(5-fluoro-4-methylpyridin-3-yl)-3-methylimidazo[1,2-a]pyridin-2-yl)cyclopropane-1-carboxamide]"
< 10,10 to 100,10 to 100,"Cc1ccc(F)cc1-c1ccc2nc(NC(=O)[C@@H]3C[C@@H]3F)cn2c1 [Example 11, (1S,2S)-2-fluoro-N-(6-(5-fluoro-2-methylphenyl)imidazo[1,2-a]pyridin-2-yl)cyclopropane-1-carboxamide]"
101 to 1000,> 1000,> 1000,"Cc1c(F)cncc1-c1ccc2nc(NC(=O)[C@@H]3C[C@@H]3F)c(Cl)n2c1 [Example 16, (1S,2S)—N-(3-chloro-6-(5-fluoro-4-methylpyridin-3-yl)imidazo[1,2-a]pyridin-2-yl)-2-fluorocyclopropane-1-carboxamide]"
10 to 100,101 to 1000,101 to 1000,"O=C(Nc1cn2cc(-c3cnccc3Cl)ccc2n1)[C@@H]1C[C@@H]1F [Example 21, (1S,2S)—N-(6-(4-chloropyridin-3-yl)imidazo[1,2-a]pyridin-2-yl)-2-fluorocyclopropane-1-carboxamide]"
< 10,101 to 1000,101 to 1000,"Cc1cccc(-c2ccc3nc(NC(=O)[C@@H]4C[C@@H]4F)cn3c2)c1C [Example 22, (1S,2S)—N-(6-(2,3-dimethylphenyl)imidazo[1,2-a]pyridin-2-yl)-2-fluorocyclopropane-1-carboxamide]"
< 10,101 to 1000,10 to 100,"CNc1ccc(C)c(-c2ccc3nc(NC(=O)[C@@H]4C[C@@H]4F)cn3c2)c1 [Example 24, (1S,2S)-2-fluoro-N-(6-(2-methyl-5-(methylamino)phenyl)imidazo[1,2-a]pyridin-2-yl)cyclopropane-1-carboxamide]"
< 10,101 to 1000,10 to 100,"O=C(Nc1cn2cc(-c3cnc4[nH]ccc4c3)ccc2n1)[C@@H]1C[C@@H]1F [Example 27, (1S,2S)—N-(6-(1H-pyrrolo[2,3-b]pyridin-5-yl)imidazo[1,2-a]pyridin-2-yl)-2-fluorocyclopropane-1-carboxamide]"
< 10,101 to 1000,101 to 1000,"Cc1ccc(-c2cc[nH]n2)cc1-c1ccc2nc(NC(=O)[C@@H]3C[C@@H]3F)cn2c1 [Example 28, (1S,2S)-2-fluoro-N-(6-(2-methyl-5-(1H-pyrazol-3-yl)phenyl)imidazo[1,2-a]pyridin-2-yl)cyclopropane-1-carboxamide]"
